Laboratory results as given in PubChem BioAssay AID463204 (Broad Institute, 2010).
Calls of active or inactive are those of the source.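 The calls were made as follows: active = AC50 no more than ten times the top concentration tested, that is within one log above it; inconclusive = flat curve fit with activity between 30% and 70%, or invalid poor fit; inactive = AC50 beyond ten times the top tested dose.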

tested on: S. cerevisiae Mot1-301 ts growth rescue, BacTiter-Glo ATP luminescence; experiment: growth rescue of Mot1-301 ts yeast, confirmation, SUMOylation pathway inhibitor project, whole organism, S. cerevisiae, Mot1-301 ts mutant, luminescence, dose retest (AID 463204);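 also: growth at restrictive 38.5 degrees C of Mot1-301 OY566 strain; actives raise luminescence by restoring growth of the ts mutant at high temperature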

Q: Which AC50 does the source give for `COc1ccc(CC(=O)NCCN2CCOCC2)cc1` here?
A: > 42 µM (inactive)

Q: For `CCC1(CC)NC(=O)N(CC(=O)OCC(=O)NC(=O)c2ccccc2)C1=O`, which AC50 is on record?
A: > 42 µM (inactive)

Q: `COc1ccccc1NC(=O)N1CCN(C(=O)Nc2ccccc2OC)CC1` was tested. Which AC50 did it give?
A: > 42 µM (inactive)

Q: With `COc1ccc(N2CCN(C(=O)Cn3nnc(-c4ccc(OC)c(OC)c4)n3)CC2)cc1` as the compound, how does the AC50 read?
A: > 42 µM (inactive)

Q: Which AC50 does the source give for `CCCCC(O)(CCCC)C(=O)NN(C(=O)OC)c1ccc(C)cc1` here?
A: > 42 µM (inactive)

Q: For `Oc1c(Br)cc(Br)cc1C=Nc1ccc2[nH]ncc2c1`, which AC50 is on record?
A: 4.76 µM

Q: With `Cc1ccc(O)c(C(=O)CC(=O)c2cccc(F)c2)c1` as the compound, how does the AC50 read?
A: 20.7 µM

Q: With `COc1ccc(-c2[nH]ncc2CNCCn2cccn2)c(F)c1` as the compound, how does the AC50 read?
A: > 42 µM (inactive)

Q: `CCOc1ccc(C(C(=O)NC2CCCC2)N(C(=O)c2snc(C(N)=O)c2N)C2CCCC2)cc1` (stereo unspecified) was tested. Which AC50 did it give?
A: 42 µM

Q: How did the AC50 turn out when `CCOc1c(P(=S)(N(C)C)N(C)C)c(C)nn1-c1ccccc1` was run?
A: > 42 µM (inactive)

Q: `CCCn1c(SC(C)C(=O)NCC2CCCO2)nc2sc(CC)cc2c1=O` (stereo unspecified) was tested. Which AC50 did it give?
A: > 42 µM (inactive)

Q: With `Cc1cc(C)c(S(=O)(=O)NCC(c2cccnc2)N2CCN(Cc3ccccc3)CC2)c(C)c1` (stereo unspecified) as the compound, how does the AC50 read?
A: > 42 µM (inactive)

Q: How did the AC50 turn out when `CCOC(=O)c1cc(C#N)c(Oc2ccccc2OC)nc1-c1ccccc1` was run?
A: > 42 µM (inactive)

Q: `COc1ccc(/C=C(\C#N)C(=O)NCCCn2ccnc2)cc1` was tested. Which AC50 did it give?
A: > 42 µM (inactive)

Q: How did the AC50 turn out when `Cc1ccc(C)c(S(=O)(=O)n2cnc3ccccc32)c1` was run?
A: > 42 µM (inactive)

Q: With `O=c1c2c3c(sc2n2cnnc2n1-c1ccccc1)N(Cc1ccccc1)CCC3` as the compound, how does the AC50 read?
A: > 42 µM (inactive)

Q: With `COC(=O)c1ccc2[nH]c(C(C)(C)O)c(C)c2c1` as the compound, how does the AC50 read?
A: > 42 µM (inactive)

Q: How did the AC50 turn out when `CC(=O)Nc1nn(C)c2nc3ccc(C)cc3cc12` was run?
A: > 42 µM (inactive)

Q: `Cc1ccc(C)c(NC(=O)COC(=O)c2ccc3c(c2)OCO3)c1` was tested. Which AC50 did it give?
A: > 42 µM (inactive)

Q: For `C=CCNC(=O)NC(=O)COC(=O)/C(C#N)=C/c1cc(C)n(CC(C)C)c1C`, which AC50 is on record?
A: > 42 µM (inactive)

Q: Which AC50 does the source give for `Cc1cc(C)n(-c2ccc(C(=O)C(C#N)c3nc4ccccc4n3C)cc2)n1` (stereo unspecified) here?
A: > 42 µM (inactive)

Q: `CCOC(=O)C1CCCN(C(=O)c2cc(-c3ccc(F)cc3)nc3ccccc23)C1` (stereo unspecified) was tested. Which AC50 did it give?
A: > 42 µM (inactive)

Q: For `O=C(NC1CCCCC1)c1ccc2c(=O)n(CC3CCCO3)c(=O)[nH]c2c1` (stereo unspecified), which AC50 is on record?
A: > 42 µM (inactive)

Q: With `COc1cc([C@@H]2CC=C(C(=O)O)[C@H](c3ccccc3F)N2S(=O)(=O)c2ccc(C)cc2)cc(OC)c1OC` as the compound, how does the AC50 read?
A: > 42 µM (inactive)

Q: For `COc1ccc(OC)c2c(N)c(C#N)c(C(F)(F)C(F)(F)F)nc12`, which AC50 is on record?
A: > 42 µM (inactive)

Q: For `COc1ccc(NC(=O)CN(c2ccc(C(C)C)cc2)S(=O)(=O)c2c(C)noc2C)cc1OC`, which AC50 is on record?
A: > 42 µM (inactive)

Q: With `COc1ccc(CN2CCNC(=O)C2CC(=O)NCc2cn3ccc(C)cc3n2)c(OC)c1` (stereo unspecified) as the compound, how does the AC50 read?
A: > 42 µM (inactive)

Q: For `Cc1cc(-c2ccc(C(C)C)c(S(=O)(=O)N3CC(=O)Nc4ccccc43)c2)on1`, which AC50 is on record?
A: > 42 µM (inactive)

Q: How did the AC50 turn out when `Cc1ccccc1-n1c(-c2cccnc2)n[nH]c1=S` was run?
A: > 42 µM (inactive)

Q: With `Cc1cc(OCC(=O)NCC2CCC(C(=O)O)CC2)c2c(C)c(C)c(=O)oc2c1` (stereo unspecified) as the compound, how does the AC50 read?
A: > 42 µM (inactive)

Q: Which AC50 does the source give for `CC(NC(=O)c1ccc(Cl)cc1)C(=O)N1CCCCC1` (stereo unspecified) here?
A: > 42 µM (inactive)

Q: With `COc1ccc(NS(=O)(=O)c2ccc(OCC(=O)N3CCOCC3)cc2)cc1Cl` as the compound, how does the AC50 read?
A: > 42 µM (inactive)

Q: For `N=c1n(CCCOc2ccc(Br)cc2)c2ccccc2n1CC(N)=O`, which AC50 is on record?
A: > 42 µM (inactive)

Q: How did the AC50 turn out when `OC1(c2ccc(F)cc2)CC2CCC(C1)N2Cc1nnnn1C1CCCCC1` (stereo unspecified) was run?
A: > 42 µM (inactive)

Q: How did the AC50 turn out when `Cc1cc(O)c(/C=N/Nc2cccc(Cl)c2)c(=O)o1` was run?
A: 3.95 µM

Q: `CCOC(=O)c1cc2sc(C)cc2n1CC(=O)Nc1ccc2c(c1)OCCO2` was tested. Which AC50 did it give?
A: > 42 µM (inactive)

Q: `CCn1cc(C(=O)NCc2ccccn2)c(=O)c2cc(F)c(N3CCN(C)CC3)cc21` was tested. Which AC50 did it give?
A: > 42 µM (inactive)

Q: How did the AC50 turn out when `O=C(CSc1nc2ncccc2[nH]1)NC1CCCCC1` was run?
A: > 42 µM (inactive)

Q: `COc1ccc(C(=O)COc2ccc3ccc(=O)oc3c2)cc1` was tested. Which AC50 did it give?
A: > 42 µM (inactive)

Q: For `O=C(Nc1cccc(C(=O)Nc2ccc(F)cc2F)c1)c1ccccc1`, which AC50 is on record?
A: > 42 µM (inactive)

Q: `CCOc1ccc(N(CC)S(=O)(=O)c2cccc3nsnc23)cc1` was tested. Which AC50 did it give?
A: > 42 µM (inactive)

Q: `COc1ccc(N2C(=O)CCC(C(=O)NCc3cccnc3)C2c2ccc(OC)c(OC)c2)cc1` (stereo unspecified) was tested. Which AC50 did it give?
A: > 42 µM (inactive)

Q: With `CCOc1ccc(N2CC(C(=O)OC)CC2=O)cc1` (stereo unspecified) as the compound, how does the AC50 read?
A: > 42 µM (inactive)

Q: For `c1ccc2c(c1)[nH]c1c(N3CCN(C4CCCCC4)CC3)ncnc12`, which AC50 is on record?
A: > 42 µM (inactive)

Q: How did the AC50 turn out when `COc1ccccc1CNc1ncnc2c1nnn2Cc1ccccc1` was run?
A: 40.1 µM

Q: How did the AC50 turn out when `CCCSc1nc(=O)n2cccc(C)c2n1` was run?
A: > 42 µM (inactive)

Q: `CCN(CC)CC(=O)Nc1ccc(Oc2ccc(NC(=O)CN(CC)CC)cc2)cc1` was tested. Which AC50 did it give?
A: > 42 µM (inactive)

Q: `CN(C)C(=O)CN1C(=O)c2cccc3cccc1c23` was tested. Which AC50 did it give?
A: > 42 µM (inactive)

Q: For `O=C1NC(Cc2c[nH]c3ccccc23)C(=O)N1Cc1ccc(CN2C(=O)NC(Cc3c[nH]c4ccccc34)C2=O)cc1` (stereo unspecified), which AC50 is on record?
A: > 42 µM (inactive)

Q: `COc1cc2c(cc1OC)C(c1ccccc1C)CC(=O)N2` (stereo unspecified) was tested. Which AC50 did it give?
A: > 42 µM (inactive)

Q: For `O=C(CSc1nnc2ccccn12)NNC(=O)c1ccc(Cl)cc1`, which AC50 is on record?
A: > 42 µM (inactive)

Q: `O=C(CSc1nc2ccc(Cl)cc2[nH]1)NCc1ccco1` was tested. Which AC50 did it give?
A: > 42 µM (inactive)

Q: With `CCCCCCCCCCOC(=O)Cn1c(COc2ccccc2OC)[n+](C)c2ccccc21` as the compound, how does the AC50 read?
A: 13.4 µM

Q: With `CCOc1ccc(C(=O)c2cccs2)cc1` as the compound, how does the AC50 read?
A: > 42 µM (inactive)

Q: Which AC50 does the source give for `COc1cccc(/C=C2/C(=O)NN(c3ccc(Br)cc3)C2=O)c1O` here?
A: > 42 µM (inactive)

Q: With `CCOC(=O)C1CCN(C(=O)c2sccc2Cl)CC1` as the compound, how does the AC50 read?
A: > 42 µM (inactive)

Q: How did the AC50 turn out when `CCN(CC)C1CCN(C(=O)c2cc(COc3ccc(-n4cncn4)cc3)on2)C1` (stereo unspecified) was run?
A: > 42 µM (inactive)

Q: With `COc1cc(/C=N/NC(=O)c2cccc([N+](=O)[O-])c2)ccc1O` as the compound, how does the AC50 read?
A: > 42 µM (inactive)

Q: Which AC50 does the source give for `Cc1cccn2c(=O)c3cc(C(=O)NCCc4ccccc4)sc3nc12` here?
A: > 42 µM (inactive)

Q: How did the AC50 turn out when `COc1cc(/C=N/NC(=O)c2ccncc2)ccc1OC(=O)c1ccco1` was run?
A: > 42 µM (inactive)

Q: For `O=C(NCc1csc(-c2cccs2)n1)Nc1ccc(F)cc1F`, which AC50 is on record?
A: > 42 µM (inactive)

Q: How did the AC50 turn out when `CCOc1ccc(S(=O)(=O)N2CCN(CC(O)COc3cccc([N+](=O)[O-])c3)CC2)cc1` (stereo unspecified) was run?
A: > 42 µM (inactive)

Q: How did the AC50 turn out when `O=C(c1cccnc1)N1CCCC(Nc2ccc(F)cc2)C1` (stereo unspecified) was run?
A: > 42 µM (inactive)

Q: Which AC50 does the source give for `N#CCCN(C(=O)COC(=O)c1ccc(S(=O)(=O)Nc2ccccc2)cc1)c1ccccc1` here?
A: > 42 µM (inactive)

Q: For `O=C(Nc1ccc(F)cc1)c1cccnn1`, which AC50 is on record?
A: > 42 µM (inactive)

Q: How did the AC50 turn out when `CC1=CC(=O)C(C(C)C)=C/C1=N/OS(=O)(=O)c1ccccc1` was run?
A: 0.92 µM

Q: With `C=CCNC(=O)c1cc(-c2cccnc2)nc2ccccc12` as the compound, how does the AC50 read?
A: > 42 µM (inactive)

Q: With `COc1cccc(NC(=O)c2nn(C34CC5CC(CC(C5)C3)C4)cc2[N+](=O)[O-])c1` as the compound, how does the AC50 read?
A: > 42 µM (inactive)

Q: For `C[C@@]12C(=O)Nc3cc(Cl)ccc3C(=O)N1[C@H]1c3ccccc3OC[C@@H]1[C@@H]2c1ccccc1`, which AC50 is on record?
A: 1.98 µM

Q: `COC(=O)C(CC(C)C)NC(=O)CNC(=O)c1ccccc1C` (stereo unspecified) was tested. Which AC50 did it give?
A: > 42 µM (inactive)

Q: For `Oc1c(Cl)cc(Cl)cc1/C=N/c1nc(-c2ccc(Cl)cc2)cs1`, which AC50 is on record?
A: 34.1 µM
